{"source": "patent US9867798B2", "about": "“Ladostigil therapy for immunomodulation” (priority 2012, dated 2018)", "key": {"[1]": {"tested_on": "cholinesterase (AChE and BuChE)", "test": "Cholinesterase activity in spleen and colon of mice drinking DSS (Ellman)", "format": "in vivo", "details": "for ChE activity colon / ChE activity spleen: DSS 5%, 8 days", "protocol": "BALB/c OlaHsd male mice aged 8-9 weeks and weighing 25-30 g were purchased from Harlan (Jerusalem, Israel) and housed in standard cages of up to 5 per cage in the pathogen free Animal Facility of the Institute for Drug Research. All experiments were performed in accordance with the Principles of Laboratory Animal Care (NIH publication #85-23, revised 1985) protocols MD-09-12197-4. Acute colitis was induced in mice by administration of 5% DSS solution (M.Wt.=[…], MP Biomedicals, LLC, Solon, Ohio, USA) in water for 8 days. The DSS solution was freshly prepared every day. Mice were provided with food and water or DSS solution ad libitum during the experiment. They were divided into groups of 10 as follows: Vehicle control group: mice drank water and were given water (1 ml/100 gm) once daily by gavage for 8 days; Drug control group: mice drank water and were given ladostigil (10 mg/kg) by gavage once daily for 8 days. DSS untreated group: mice drank 5% DSS for 7 days and water on the 8th day and were given water (1 ml/100 g) once daily by gavage for 8 days. Drug treated group: mice drank 5% DSS followed by water as above and were given ladostigil (5 or 10 mg/kg) by gavage once daily for 8 days. The volume of 5% DSS solution consumed was measured for each group of mice and the average volume/mouse was calculated. On the eighth day, the mice were anesthetized by CO2 and sacrificed by cervical dislocation 2 h after the last dose of ladostigil. Samples of colon and spleen were taken for measurement of cytokines MPO, cytokines and ChE activity.\nIn experiments on the effect of chronic treatment with ladostigil on ChE activity in mice drinking DSS, the spleen was rapidly removed as described above, together with a colon segment of about 0.5 cm in length taken from the proximal area. Spleen and colon segments were washed in cold phosphate buffered saline (PBS) before they were frozen at −80° C. For assay, the tissue was unfrozen and weighed and PBS was added to each tissue at a ratio of 1 mg tissue to 1 ml. Tissues were homogenized at a speed of 24,000 rpm in cold phosphate buffer pH 7 containing 0.1% Triton and centrifuged at 14000 rpm. Aliquots of plasma and the supernatant from the spleen and colon were incubated with acetylthiocholine and dinitro benzoic acid in phosphate buffer pH 7 and the rate of development of the yellow color was measured as described by Ellman et al, (1961). Percent inhibition of ChE activity was calculated by comparison with that of control mice given water by gavage. Protein concentration was determined by means of by Pierce BCA Protein Assay Kit (Thermo Scientific, USA) according to the manufacturer's instructions. It is noted, that ChE activity in the colon and spleen of mice is attributed mainly to that of AChE while that in mouse plasma is mainly attributable to BuChE."}, "[2]": {"tested_on": "LPS-induced TNF-α, IL-1β and IL-6 in spleen", "test": "Cytokines in spleen of mice injected with LPS (Example 4)", "format": "in vivo, Balb/c mice", "protocol": "Male Balb/c mice (aged 6-7 weeks, weighing 25-30 gm) were given ladostigil 10 mg/kg by gavage or 1 ml/kg saline followed 15 min later by an intra-peritoneal (i.p.) injection of LPS (10 mg/kg). For measurement of cytokine levels in the spleen and blood the mice were sacrificed 4 h after drug administration, blood collected in heparinized tubes and centrifuged to obtain plasma and the spleen was rapidly removed and weighed. Plasma and spleen were frozen in liquid nitrogen and stored at −80° C. until use.\nFor measurement of cytokine levels the tissue was diluted in PBS containing 0.8% NaCl, 0.144% NaHPO4, 0.024% KH2PO4 and protease inhibitor cocktail (Sigma Israel, P8340) and homogenized in an Ultra-TURRAX® homogenizer at a speed of 24,000 rpm, centrifuged at 14000 g for 15 min at 4° C. Cytokines were detected in the supernatant by using ELISA kits for cytokines IL-1β, IL-6, and TNF-α(Biolegend) following the manufacturer's protocol. Each experiment was performed 4 times with 6 replicate measures in each experiment. Protein concentration in each sample was determined with Bradford reagent (Bio-RAD, 500-0006)."}, "ChE": {"tested_on": "ChE", "test": "Cholinesterase activity in spleen and plasma of mice (Example 4)", "format": "in vivo, Balb-C mice", "details": "10 mg/kg oral, two hours, ± SD, not significant", "protocol": "Ladostigil 10 mg/kg or saline 1 mg/kg were given by gavage to groups of 6 Balb-C male mice weighing 24-30 gm. The mice were sacrificed 120 min later when ChE inhibition reaches its peak. The spleen was rapidly removed and weighed and blood was centrifuged at 14000 rpm at room temperature for 4 min to provide plasma. Phosphate buffer was added to the spleen at a ratio of 1 mg/ml and the tissue was homogenized at a speed of 24,000 rpm in cold phosphate buffer pH=7 containing 0.1% Triton and centrifuged at 14000 rpm. Aliquots of plasma and the supernatant from the spleen were incubated with acetylthiocholine and dinitro benzoic acid in phosphate buffer pH 7 and the rate of development of the yellow color was measured as described by Ellman et al, (1961). Percent inhibition of ChE activity was calculated by comparison with that of control mice given with saline. Protein concentration was determined by means of Bradford reagent (Bio-RAD, 500-0006) and results represented as activity/mg protein."}, "BuChE": {"target": "BuChE (Homo sapiens, UniProt P06276)", "sequence (P06276 29-602)": "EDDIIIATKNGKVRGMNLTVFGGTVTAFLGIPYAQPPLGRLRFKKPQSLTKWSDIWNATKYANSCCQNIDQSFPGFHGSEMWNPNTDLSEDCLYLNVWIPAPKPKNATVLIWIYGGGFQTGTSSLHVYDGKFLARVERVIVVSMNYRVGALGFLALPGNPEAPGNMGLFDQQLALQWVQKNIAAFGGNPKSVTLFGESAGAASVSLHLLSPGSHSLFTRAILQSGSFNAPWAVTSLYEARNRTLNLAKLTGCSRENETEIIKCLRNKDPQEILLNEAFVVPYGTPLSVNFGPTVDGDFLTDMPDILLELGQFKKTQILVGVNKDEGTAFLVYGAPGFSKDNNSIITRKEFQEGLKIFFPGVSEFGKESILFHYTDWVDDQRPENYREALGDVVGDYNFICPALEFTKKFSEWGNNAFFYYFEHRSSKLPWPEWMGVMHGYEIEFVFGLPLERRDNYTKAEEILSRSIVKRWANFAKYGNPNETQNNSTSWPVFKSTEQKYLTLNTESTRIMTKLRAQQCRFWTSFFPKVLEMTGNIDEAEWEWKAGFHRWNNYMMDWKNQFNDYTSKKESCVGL", "test": "Relative potency in inhibiting BuChE and AChE"}, "[3]": {"details": "10 mg/kg by gavage + LPS 10 mg/kg i.p., four hours"}}}
{"smiles": "C#CCN[C@@H]1CCc2ccc(OC(=O)N(C)CC)cc21", "note": "[Ladostigil, R(+)-6-(N-methyl, N-ethyl-carbamoyloxy)-N′-propargyl-1-aminoindan]", "values": [{"measurement": "Inhibition of ChE in the colon", "setting": "[1]; 5 or 10 mg/kg", "value": "Neither dose of ladostigil caused any significant inhibition"}, {"measurement": "ChE activity colon", "setting": "[1]; 5 mg/kg orally once daily", "value": "18.5 ± 1.4 μmoles of acetylthiocholine hydrolyzed/min/mg protein"}, {"measurement": "ChE activity spleen", "setting": "[1]; 5 mg/kg orally once daily", "value": "10.8 ± 0.6 μmoles of acetylthiocholine hydrolyzed/min/mg protein"}, {"measurement": "ChE activity colon", "setting": "[1]; 10 mg/kg orally once daily", "value": "16.7 ± 1.2 μmoles of acetylthiocholine hydrolyzed/min/mg protein"}, {"measurement": "ChE activity spleen", "setting": "[1]; 10 mg/kg orally once daily", "value": "10.2 ± 0.7 μmoles of acetylthiocholine hydrolyzed/min/mg protein"}, {"measurement": "Reduction of IL-1β levels in spleen", "setting": "[2]; 10 mg/kg + LPS, Example 4", "value": 28.1, "unit": "%"}, {"measurement": "Reduction of IL-6 levels in spleen", "setting": "[2]; 10 mg/kg + LPS, Example 4", "value": 46.7, "unit": "%"}, {"measurement": "Reduction of TNF-α levels in spleen", "setting": "[2]; 10 mg/kg + LPS, Example 4", "value": 49.6, "unit": "%"}, {"measurement": "IL-1β in spleen", "setting": "[2]; [3]", "value": "1.37 ± 0.04", "unit": "ng/mg protein"}, {"measurement": "IL-6 in spleen", "setting": "[2]; [3]", "value": "179 ± 20", "unit": "pg/mg protein"}, {"measurement": "TNF-α in spleen", "setting": "[2]; [3]", "value": "8.3 ± 0.9", "unit": "pg/mg protein"}, {"measurement": "Reduction of elevation of pro-inflammatory cytokines in the spleen", "setting": "[2]; oral dose prior to LPS, Example 4 conclusion", "value": "28-50%"}, {"measurement": "Inhibition of ChE in plasma", "setting": "ChE", "value": "5.7±2.1", "unit": "%"}, {"measurement": "Inhibition of ChE in spleen", "setting": "ChE", "value": "7.8±6.4", "unit": "%"}, {"measurement": "Potency in inhibiting BuChE relative to AChE", "setting": "BuChE", "value": "at least ten times more potent in inhibiting BuChE than in inhibiting AChE"}]}
